# Read-outs that look alike come from different tables or passages of the source. Ends that are not written are not given here.
# Legend:
# Format in all cases: cell-based, murine
# MEFs = assay: Mitochondrial fusion by mixing of organellar contents after PEG-mediated cell fusion; conditions: 1 μM for 6 hours
# Experimental: MEFs or neurons were grown on chamber slides and infected with recombinant adenoviri for 48-72 hours unless otherwise indicated. MEFs were stained with MitoTracker Green (200 nM, Invitrogen M7514) and Blue Hoechst (10 mg/ml, Invitrogen H3570), with or without tetramethylrhodamine ethyl ester (TMRE; 200 nM, Invitrogen T-669). Neuronal mitochondria were labeled with adenoviral-expressed mitoGFP plus TMRE, or with adeno-mitoDsRed for time-lapse studies. […] Mitochondrial fusion was measured at 2 and 6 hours after PEG-mediated cell fusion of MEFs treated 48 hours previously with adeno-mitoGFP or adeno-mitoDsRed (Chen et al., 2005, J Biol Chem, 280:26185-26192). Laser confocal fluorescence was excited with 561 nm (MitoTracker Green, GFP, FITC), 637 nm (TMRE, LysoTracker Red, mcherry-Parkin, MitoTracker Orange) or 408 nm (Blue Hoechst) laser diodes. Image analysis—Mitochondrial aspect ratio was calculated using automated edge detection and Image J software (Song et al., 2015, Cell Metab, 21:273-285). Mitochondrial depolarization was calculated as % of green mitochondria visualized on MitoTracker Green and TMRE merged images, expressed as green/(green+yellow mitochondria)×100. Parkin aggregation was calculated as % of cells with mitochondrial clumping of mcherry-Parkin (Song et al., 2015, Cell Metab, 21:273-285). […]
# Mfn2 T105M fl/st MEFs = assay: TAT-minipeptides in MEFs expressing CMT2A mutant hMfn2 T105M; conditions: for mitochondrial fragmentation / dysmorphology / mitochondrial polarization / depolarization: Mfn2 T105M MEFs, 72 hours after adeno-Cre, 1 μM
# Experimental: Wild-type murine embryonic fibroblast cells (MEFs) were prepared from E10.5 C57/b6 mouse embryos. SV-40 T antigen-immortalized Mfn1 null (“Mfn1 KO,” ATCC No. CRL-2992), Mfn2 null (“Mfn2 KO,” ATCC No. CRL-2993) and Mfn1/Mfn2 double null MEFs (“Mfn DKO,” ATCC No. CRL-2994) were purchased from ATCC. MEFs conditionally expressing the human Mfn2 T105M mutation were prepared from E10.5 embryos of C57BL/6-Gt(ROSA)26Sor[tm1(CAG-MFN2*T105M)Dple]/J mice purchased from The Jackson Laboratory (Stock No: 025322). MEFs were maintained in DMEM containing 4.5 g/L glucose (or galactose when specified) supplemented with 10% fetal bovine serum, 1× nonessential amino acids, 2 mM L-glutamine, 100 U/ml penicillin and 100 μg/ml streptomycin.
# Models cells harboring a Cre recombinase-inducible mutant human Mfn2 containing the T105M mutation were used (FIG. 13A) because they recapitulate fusion defects caused by compound functional null Mfn2 mutants in […] CMT2A. A time course study of mitochondrial fragmentation after adeno-Cre mediated induction of Mfn2 T105M was performed and the results are shown in FIG. 13B.
# It was considered that mitochondrial dysmorphology created by genetic Mfn2 dysfunction in CMT2A might be improved by TAT-367-384Gly if endogenous normal Mfn1 or Mfn2 proteins could be compelled into their active unfolded conformations, thus overcoming dominant inhibition by GTPase Mfn2 mutants. This was tested in MEFs expressing the CMT2A-causal mutant hMfn2 T105M (Calvo et al., 2009, Arch Neurol, 66:1511-1516; Detmer et al., 2008, Hum Mol Genet, 17:367-375) as a conditional flox/stop (fl/st) transgene. […] Parallel adenoviral expression of WT Mfn2 at more than twice the levels of Mfn2 T105M (5-fold vs 2-fold) provoked neither mitochondrial nor cellular toxicity (data not shown). Scale bars are 10 microns. N=3 or 4; *=P<0.05 vs. control, #=P<0.05 vs. Ad-Cre (ANOVA).
# WT MEFs = conditions: for mitochondrial aspect ratio (effect of TAT fusion construct): WT MEFs, varying concentrations / time course; for EC50: mitochondrial aspect ratio dose response; for EC50 / half-time for mitochondrial shape change: MEFs; for half-time for mitochondrial shape change: time course
# Experimental: MEFs or neurons were grown on chamber slides and infected with recombinant adenoviri for 48-72 hours unless otherwise indicated. MEFs were stained with MitoTracker Green (200 nM, Invitrogen M7514) and Blue Hoechst (10 mg/ml, Invitrogen H3570), with or without tetramethylrhodamine ethyl ester (TMRE; 200 nM, Invitrogen T-669). Neuronal mitochondria were labeled with adenoviral-expressed mitoGFP plus TMRE, or with adeno-mitoDsRed for time-lapse studies. Cover slips were loaded onto a chamber (Warner instrument, RC-40LP) in modified Krebs-Henseleit buffer (138 mM NaCl, 3.7 mM KCl, 1.2 mM KH2PO4, 15 mM Glucose, 20 mM HEPES and 1 mM CaCl2) at room temperature and visualized on a Nikon Ti Confocal microscope equipped with a 60×1.3 NA oil immersion objective. For mitophagy studies MEFs were stained with MitoTracker Green and infected with adeno-mcherry Parkin or stained with LysoTracker Deep Red (50 nM, Invitrogen L-7528); carbonylcyanide p-trifluoromethoxyphenylhydrazone (FCCP, 10 μM for 1 hour) was applied as a positive control. Mitochondrial fusion was measured at 2 and 6 hours after PEG-mediated cell fusion of MEFs treated 48 hours previously with adeno-mitoGFP or adeno-mitoDsRed (Chen et al., 2005, J Biol Chem, 280:26185-26192). Laser confocal fluorescence was excited with 561 nm (MitoTracker Green, GFP, FITC), 637 nm (TMRE, LysoTracker Red, mcherry-Parkin, MitoTracker Orange) or 408 nm (Blue Hoechst) laser diodes. Image analysis—Mitochondrial aspect ratio was calculated using automated edge detection and Image J software (Song et al., 2015, Cell Metab, 21:273-285). Mitochondrial depolarization was calculated as % of green mitochondria visualized on MitoTracker Green and TMRE merged images, expressed as green/(green+yellow mitochondria)×100. Parkin aggregation was calculated as % of cells with mitochondrial clumping of mcherry-Parkin (Song et al., 2015, Cell Metab, 21:273-285). Lysosomal engulfment of mitochondria was identified by colocalization of LysoTracker Red and MitoTracker Green (Song et al., 2015, Cell Metab, 21:273-285).
# TAT47-57 is a well-characterized “carrier” peptide able to promote active cellular peptide uptake. Specifically, a linear peptide was constructed in which the hMfn2 modulatory peptide was linked by a peptide bond at its C-terminus to a Gly-Gly dipeptide linker whose C-terminus was linked by a peptide bond to the TAT47-57 peptide having the sequence YGRKKRRQRRR (SEQ ID NO:25). The resultant linear fusion-promoting peptide conjugate comprises the sequence […] (SEQ ID NO:23). The fusion-inhibiting linear peptide has the sequence […] (SEQ ID NO:24). Except for dose-response studies, stock concentrations of TAT-minipeptides in sterile water were applied to cultured MEFs at a dilution factor of 1:2000 to achieve final concentrations of 1 or 5 μM.
# The functional consequences of the Mfn2 HR1-derived peptides were defined after synthesizing them as C-terminal TAT47-57 conjugates to promote active cellular uptake. Mitochondrial fusion can be detected by mixing of organellar contents (Chen et al., 2005, J Biol Chem, 280:26185-26192). […] (FIG. 8A, scale bar is 20 microns). Mitochondrial aspect ratio changed in parallel with mitochondrial mixing (FIG. 8B).
# Experiments were performed with these shortened variants fused to a carrier peptide via a linker according to the methods described in Example 5 above. Wildtype MEFs were treated with varying concentrations of peptide fusion constructs described in Table 4 and mitochondrial aspect ratios determined. A dose response curve for TetherX-N and -C variants are shown in FIG. 17A (squares are data for TetherX-N and circles are for TetherX-C). The dose response curve for GoFuse-N and -C variants are shown in FIG. 17B (squares are for GoFuse-N and circles are for GoFuse-C).
sequence,measurement,setting,value
QDRLKFIDKQGELLAQDYKLRGGYGRKKRRQRRR [TAT-398-418Gly],rate of mitochondrial content mixing (mitochondrial fusion),MEFs,completely suppressed mitochondrial fusion
same,mitochondrial fragmentation / dysmorphology,Mfn2 T105M fl/st MEFs,aggravated mitochondrial dysmorphology
same,mitochondrial polarization / depolarization,Mfn2 T105M fl/st MEFs,exacerbated mitochondrial depolarization
same,mitochondrial aspect ratio (effect of TAT fusion construct),WT MEFs,decreased mitochondrial aspect ratio
same,EC50,WT MEFs; read-out: EC50 for mitochondrial shortening (suppressed fusion),250 ± 90 nM
same,half-time for mitochondrial shape change,WT MEFs,approximately 2 hours
QIAEAVRGIMDSLHMAARGGYGRKKRRQRRR [TAT-367-384Gly],rate of mitochondrial content mixing (mitochondrial fusion),MEFs,more than doubled
same,mitochondrial fragmentation / dysmorphology,Mfn2 T105M fl/st MEFs,rapidly reversed mitochondrial fragmentation
same,mitochondrial polarization / depolarization,Mfn2 T105M fl/st MEFs,improved mitochondrial polarization
same,mitochondrial clumping,Mfn2 T105M fl/st MEFs; cells expressing Mfn2 T105M,corrected mitochondrial clumping
same,mitochondrial aspect ratio (effect of TAT fusion construct),WT MEFs,increased the mitochondrial aspect ratio
same,EC50,WT MEFs; read-out: EC50 for mitochondrial elongation (enhanced fusion),280 ± 90 nM
same,half-time for mitochondrial shape change,WT MEFs,approximately 2 hours
